Measured values published in BindingDB's records for patent US9790233 (Case Western Reserve University, 2017).

Biological target: T1, 15-hydroxyprostaglandin dehydrogenase [NAD(+)] (Homo sapiens, UniProt P15428)
T1 sequence (P15428 whole entry): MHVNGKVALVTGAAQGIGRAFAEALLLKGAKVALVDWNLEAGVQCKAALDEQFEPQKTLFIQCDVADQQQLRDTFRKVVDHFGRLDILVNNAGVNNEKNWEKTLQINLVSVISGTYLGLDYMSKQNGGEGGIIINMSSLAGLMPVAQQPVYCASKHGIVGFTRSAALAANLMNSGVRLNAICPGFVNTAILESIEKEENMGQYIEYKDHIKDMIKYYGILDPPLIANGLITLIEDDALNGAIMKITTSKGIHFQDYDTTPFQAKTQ
Assay: In Vitro Assay

Work on CCCCC(=O)c1sc2nc(-c3nccs3)ccc2c1N [US9790233, ID SW206992] yielded an IC50 of 1.41 nM.
